One assay has as its target T1, IDH1 mutant (R132H) (Homo sapiens, UniProt O75874, R132H).
T1 construct: purchased BPS Bioscience 71099-2
Nature of the assay: Mutant IDH1-R132H Fluorescence Assay (Resazurin based). It counts as biochemical. The conditions noted are these: 10 nM IDH1 R132H, 4 mM α-ketoglutarate, NADPH, 1.5 h at room temperature. In short, it runs like this:
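Recombinant IDH1 R132H (10 nM) was run with α-ketoglutarate (4 mM) and NADPH ([…]) for 1.5 h at room temperature in Tris pH buffer with MgCl2, BSA and mercaptoethanol. Remaining NADPH was detected via diaphorase/resazurin fluorescence (ex 540/em 590 nm). IC50 came from a 4-parameter logistic fit.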
(In general: Alamar Blue is a resazurin reagent that responds to reducing activity.)

The target of the next assay is T2, IDH1-WT (Homo sapiens, UniProt O75874).
T2 construct: purchased BPS Bioscience 71075-2
Description: IDH1-WT Fluorescence Assay (Resazurin based). It counts as biochemical. The conditions noted are these: 1 nM IDH1-WT, 200 μM isocitrate, 15 μM NADP+, 30 min at room temperature. An outline of the steps:
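Compounds (3-fold dilutions, 0.5% DMSO) preincubated 5 min with 200 μM isocitrate and 15 μM NADP+ in Tris/MgCl2 buffer, then 1 nM IDH1-WT added for 30 min at room temperature in the dark. NADPH detected via resazurin/diaphorase (15 min, ex 540/em 590 nm); IC50 by four-parameter logistic fit of % inhibition.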

A further assay addresses T3, IDH2 mutant (R140Q) (Homo sapiens, UniProt P48735, R140Q).
T3 construct: purchased BPS Bioscience 71100-2
T3 sequence (P48735 40-452 R140Q): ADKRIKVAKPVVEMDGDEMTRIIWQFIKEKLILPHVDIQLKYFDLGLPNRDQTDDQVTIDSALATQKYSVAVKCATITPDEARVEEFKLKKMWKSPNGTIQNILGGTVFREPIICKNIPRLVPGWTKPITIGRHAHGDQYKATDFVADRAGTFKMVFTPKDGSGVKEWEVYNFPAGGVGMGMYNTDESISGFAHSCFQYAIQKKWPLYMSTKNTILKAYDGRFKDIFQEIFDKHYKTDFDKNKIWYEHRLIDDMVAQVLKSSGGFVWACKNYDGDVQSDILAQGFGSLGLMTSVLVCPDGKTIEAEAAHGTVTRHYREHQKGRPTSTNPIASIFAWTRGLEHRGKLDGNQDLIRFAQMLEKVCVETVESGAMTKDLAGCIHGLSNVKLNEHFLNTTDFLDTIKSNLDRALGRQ
Description: Mutant IDH2-R140Q Fluorescence Assay (Resazurin based). It counts as biochemical. The note with it: 5 nM IDH2 R140Q, 4 hr pre-incubation, 1 mM α-ketoglutarate, 5 μM NADPH, 2 h. An outline of the steps:
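Recombinant IDH2 R140Q (5 nM) pre-incubated 4 h at 25 °C with 3-fold diluted compounds in Tris/NaCl/MgCl2 buffer, then 2 h reaction with 1 mM α-ketoglutarate and 5 μM NADPH. Remaining NADPH detected via diaphorase/resazurin fluorescence (ex 540/em 590 nm); IC50 from four-parameter logistic fit of % inhibition vs DMSO and no-enzyme controls.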

The target in assay [1] is T4, mutant IDH1 (R132C) HT1080 cells (Homo sapiens, UniProt O75874, R132C).
T4 construct: host or cells: HT1080
Description: Cellular 2-HG assay using mutant IDH1 (R132C) HT1080 cells. It counts as cell-based. The note with it: 48 h treatment, 0.003 to 3 μM, 2-HG in cell culture media. The procedure:
HT1080 (ATCC® CCL-121™) cells were plated in a 12 well plate (Nunc™ Cell-Culture Treated Multidish; Cat #150628) at a cell density of 5×10^4 cells/well. Cells were then treated with various concentrations of test/reference compounds (ranging from 0.003 to 3 μM) or vehicle for 48 h under cell culture conditions (in CO2 incubator, 5% CO2, 37° C.). Metabolites were extracted from cell culture media by precipitation method and IC50 values of compounds were determined by Resazurin based Fluorescence assay. Assay buffer contained 100 mM HEPES pH 8.0, 100 μM NAD^+ (Sigma; Cat # N1630-100MG), […] HGDH, 5 μM resazurin (Cat #62758-13-8, Sigma) and 0.01 U/ml diaphorase (Cat # D2197-300UN, Sigma). Total assay volume was 100 μl. 75 μl of assay buffer was added to 25 μl sample volume (supernatant) and incubated at RT in the dark for 30 min in black 96-well plates (Thermo Scientific). Fluorometric detection was done using a Synergy Neo Plate reader (BioTek, Winooski) at single excitation of 540 nm and emission at 590 nm respectively).
The % activity of test samples was calculated as (Sample−Min)×100/(Max−Min). [Max: DMSO control, complete reaction with enzyme with DMSO and Min: No enzyme with DMSO]. Percent inhibition (100−% activity) was fitted to the “four-parameter logistic model” in XLfit for determination of IC50 values.

Where only a bound is given, the exact number is not on record here.

The values below come from patent US20200206233A1 (INTEGRAL BIOSCIENCES PRIVATE LIMITED, priority 2018, published 2020).

T2 sequence (O75874 whole entry): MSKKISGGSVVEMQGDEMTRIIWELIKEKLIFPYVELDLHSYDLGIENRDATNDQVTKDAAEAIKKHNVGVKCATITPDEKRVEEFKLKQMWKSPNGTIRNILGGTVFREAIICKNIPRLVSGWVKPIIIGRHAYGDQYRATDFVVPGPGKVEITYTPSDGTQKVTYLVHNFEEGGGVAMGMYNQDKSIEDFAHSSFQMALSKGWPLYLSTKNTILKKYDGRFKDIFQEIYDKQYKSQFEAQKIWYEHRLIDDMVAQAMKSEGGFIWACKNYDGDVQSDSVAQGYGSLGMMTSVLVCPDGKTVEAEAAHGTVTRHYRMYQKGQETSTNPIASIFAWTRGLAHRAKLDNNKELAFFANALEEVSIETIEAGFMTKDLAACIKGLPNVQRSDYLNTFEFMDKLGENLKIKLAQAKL
T4 sequence (O75874 2-414 R132C limits assumed): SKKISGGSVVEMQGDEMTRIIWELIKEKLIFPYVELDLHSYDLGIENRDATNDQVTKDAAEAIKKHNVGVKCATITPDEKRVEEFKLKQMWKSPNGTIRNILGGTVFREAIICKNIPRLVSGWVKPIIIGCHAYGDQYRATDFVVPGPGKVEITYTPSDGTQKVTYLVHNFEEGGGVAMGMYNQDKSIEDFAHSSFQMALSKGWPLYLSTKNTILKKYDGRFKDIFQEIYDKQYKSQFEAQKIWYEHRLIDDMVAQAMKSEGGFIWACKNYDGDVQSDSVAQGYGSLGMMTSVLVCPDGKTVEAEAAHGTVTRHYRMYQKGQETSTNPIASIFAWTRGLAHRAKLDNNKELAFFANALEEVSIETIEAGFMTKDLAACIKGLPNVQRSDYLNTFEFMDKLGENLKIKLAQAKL
T1 sequence (O75874 whole entry R132H): as the sequence (O75874 whole entry) above, with R132H counted along it

As a reminder, the IC50 is the concentration that gives 50% inhibition. Regarding `CC[C@H]1COC(=O)N1c1nc(C)nc(N[C@@H](C)c2cc3cc(Cl)ccc3[nH]c2=O)n1` [Compound 1.38, (S)-3-(4-((S)-1-(6-chloro-2-oxo-1,2-dihydroquinolin-3-yl)ethylamino)-6-methyl-1,3,5-triazin-2-yl)-4-ethyloxazolidin-2-one], the IC50 at IDH1 mutant (R132H) is 144 nM; on IDH1-WT it was > 50000 nM; on IDH2 mutant (R140Q), > 50000 nM; in assay [1], 634 nM.

Turning to `Cc1nc(N[C@@H](C)c2cc3cc(Cl)ccc3[nH]c2=O)nc(N2C(=O)OC[C@@H]2[C@H](C)F)n1` [Compound 1.59, (R)-3-(4-((S)-1-(6-chloro-2-oxo-1,2-dihydroquinolin-3-yl)ethylamino)-6-methyl-1,3,5-triazin-2-yl)-4-((S)-1-fluoroethyl) oxazolidin-2-one], the IC50 on IDH1 mutant (R132H) is 178 nM; on IDH1-WT, > 50000 nM; at IDH2 mutant (R140Q), > 50000 nM; in assay [1] it was 271 nM.

As for `CC[C@H]1COC(=O)N1c1nc(C)nc(N[C@@H](C)c2cc3cc(Cl)c(OC(C)C)cc3[nH]c2=O)n1` [Compound 1.104, (S)-3-(4-((S)-1-(6-chloro-7-isopropoxy-2-oxo-1,2-dihydroquinolin-3-yl)ethylamino)-6-methyl-1,3,5-triazin-2-yl)-4-ethyloxazolidin-2-one], the IC50 on IDH1 mutant (R132H) was 75 nM; on IDH1-WT, > 50000 nM; at IDH2 mutant (R140Q), > 50000 nM; in assay [1] it was 94 nM.

For `Cc1nc(N[C@@H](C)c2ccc(Oc3ccccc3)cc2)nc(N2C(=O)OC[C@@H]2[C@H](C)F)n1` [Compound 1.64, (R)-4-((S)-1-fluoroethyl)-3-(4-methyl-6-((S)-1-(4-phenoxyphenyl)ethylamino)-1,3,5-triazin-2-yl)oxazolidin-2-one], the IC50 at IDH1 mutant (R132H) was 227 nM; on IDH1-WT it was > 50000 nM; at IDH2 mutant (R140Q), > 50000 nM; in assay [1] it was 36 nM.

For `CC[C@H]1COC(=O)N1c1nc(C)nc(N[C@@H](C)c2cc3cc(Cl)c(OC)cc3[nH]c2=O)n1` [Compound 1.42, (S)-3-(4-((S)-1-(6-chloro-7-methoxy-2-oxo-1,2-dihydroquinolin-3-yl)ethylamino)-6-methyl-1,3,5-triazin-2-yl)-4-ethyloxazolidin-2-one], the IC50 was 84 nM at IDH1 mutant (R132H), > 50000 nM on IDH1-WT, > 50000 nM on IDH2 mutant (R140Q) and 556 nM in assay [1].

On to `CC[C@H]1COC(=O)N1c1nc(C)nc(N[C@@H](C)c2ccc(Oc3ccccc3)cc2)n1` [Compound 1.44, (S)-4-ethyl-3-(4-methyl-6-((S)-1-(4-phenoxyphenyl)ethylamino)-1,3,5-triazin-2-yl)oxazolidin-2-one], for which the IC50 at IDH1 mutant (R132H) was 209 nM; on IDH1-WT it was > 50000 nM; at IDH2 mutant (R140Q), > 50000 nM; in assay [1] it was 168 nM.

In the case of `CC[C@H]1COC(=O)N1c1nc(C)nc(N[C@@H](C)c2cn(-c3ccc(Cl)cc3)cn2)n1` [Compound 1.50, (S)-3-(4-((S)-1-(1-(4-chlorophenyl)-1H-imidazol-4-yl)ethylamino)-6-methyl-1,3,5-triazin-2-yl)-4-ethyloxazolidin-2-one], the IC50 was 456 nM at IDH1 mutant (R132H), > 50000 nM at IDH1-WT, > 50000 nM at IDH2 mutant (R140Q) and 413 nM in assay [1].

Take `CC(C)[C@H]1COC(=O)N1c1ncnc(N[C@@H](C)c2ccc(Oc3ccccc3)cn2)n1` [Compound 1.19, (S)-4-isopropyl-3-(4-((S)-1-(5-phenoxypyridin-2-yl)ethylamino)-1,3,5-triazin-2-yl)oxazolidin-2-one]: the figures for the IC50 on IDH1 mutant (R132H), at IDH1-WT and at IDH2 mutant (R140Q) were 1660 nM, > 50000 nM and > 50000 nM, respectively.

As for `C[C@H](Nc1ncnc(N2C(=O)OC[C@@H]2c2ccccc2)n1)c1cn(-c2ccc(C(F)(F)F)cc2)cn1` [Compound 1.26, (S)-4-phenyl-3-(4-((S)-1-(1-(4-(trifluoromethyl)phenyl)-1H-imidazol-4-yl)ethylamino)-1,3,5-triazin-2-yl)oxazolidin-2-one], the values for the IC50 on IDH1 mutant (R132H), on IDH1-WT and on IDH2 mutant (R140Q) were 3040 nM, > 50000 nM and > 50000 nM, respectively.

With `CC[C@H]1COC(=O)N1c1nc(C)nc(N[C@@H](C)c2ccc(Oc3cccnc3C(F)(F)F)cc2)n1` [Compound 1.81, (S)-4-ethyl-3-(4-methyl-6-((S)-1-(4-(2-(trifluoromethyl)pyridin-3-yloxy)phenyl)ethylamino)-1,3,5-triazin-2-yl)oxazolidin-2-one], the 50% inhibitory concentration (IC50) at IDH1 mutant (R132H) was 586 nM; at IDH1-WT, > 50000 nM; on IDH2 mutant (R140Q), > 50000 nM.
